This is an account of results in a melting point compilation (Tetko et al.; mined from patent text by program, amines drawn as free bases though some values may be those of a salt).

A value given as a limit tells only on which side of the number the result lay.

For `COc1c(Br)cc(C2CC=CCC2[N+](=O)[O-])c(OC)c1OC` (configuration not stated), the melting point was 134 to 136 °C.
The figure for `CC(=O)C1C(Cl)CC2C3CCC4CC(O)C(Cl)CC4(C)C3C(=O)CC21C` (configuration not stated) is 192 to 194 °C; for `CC(C)(C)OC(=O)NCC1CN(c2cccc(Cl)n2)C1` it is 124 to 126 °C.
As for `Cc1cc(C)n(C)c1C(=O)c1ccc(Cl)cc1Cl`, the figure is 96 to 98 °C; as for `Cc1nc2ccccc2n1Cc1ccc(C(=O)N(C)C2CCNCC2)cc1`, 196 to 198 °C.
The figure for `Cc1ccc2c(c1)C1(OCCCO1)C(=O)N2` is 128 to 130 °C.
`CC(Cc1cc(-c2ccccc2)nc2ccccc12)C(=O)N(C)C1CCCCC1` (configuration not stated) yielded a melting point of 160 °C.
The figure for `CN(CCC(=O)O)c1ccccc1CNC(=O)C1Cc2ccccc2N1S(=O)(=O)c1ccc(-c2ccc(F)cc2Cl)cc1` (configuration not stated) is 75 to 83 °C; for `COC(=O)Cc1ccc(OCCNC(=O)C2Cc3ccccc3N2S(=O)(=O)c2ccc(-c3ccc(F)cc3)cc2)c(Cl)c1` (configuration not stated) it is 68 to 76 °C; for `COc1cc2nc(Cl)n3cnnc3c2cc1OC` it is 269 to 271 °C.
The figure for `N#CC(C#N)=C1C=C(c2ccsc2)S(=O)(=O)C(c2ccsc2)=C1` is 275 to 285 °C; for `Cc1ccc(C(=O)O)c(OCc2ccc(OCCc3nc(-c4ccccc4)oc3C)cc2)c1` it is 116 to 118 °C.
As for `OCc1cc(N2CCOCC2)ncn1`, the figure is 138 °C.
In the case of `c1cc(N2CCOCC2)c2c(c1)-n1cnc(-c3nc(C4CC4)no3)c1N1CCN=C21`, the melting point was in the range of 217 to 220 °C.
The figure for `Nc1cccnc1-c1ccccc1` is 59 to 62 °C; for `CCCc1cc(-c2nc3c(s2)CCCO3)ccc1O` it is 152 to 154 °C.
As for `CC(C(=O)O)c1ccc(C(=O)c2cccs2)c(Cl)c1` (configuration not stated), the figure is 82.5 °C; as for `CCC(=O)NS(=O)(=O)c1ccc(-c2cc(-c3nc(-c4ccc(C(F)(F)F)cc4)cc(C(F)(F)F)n3)ccn2)s1`, 257 °C; as for `COC(=O)c1cc(I)cc2c1Nc1ccccc1C2`, 148 to 150 °C.
`CCOC(=O)c1csc(Cc2ccc(NC(=O)/C=C/c3cnn(C)c3-c3ccc(F)cc3)cc2)n1` yielded a melting point of 189 to 190 °C.
`ON=Cc1ccccc1-c1ccc2c(c1C=NO)OCO2`: the melting point lay within 227 to 229 °C.
The figure for `CC[C@]12CC[C@H]3[C@@H](CC(Cl)C4=CC(=O)CC[C@@H]43)[C@@H]1C=CC2=O` (some centres not stated) is 136 °C; for `CC(CCN1CCCCC1)CC(=O)NNC(=O)N1Cc2ccccc2Oc2ccc(Cl)cc21` (configuration not stated) it is 108 to 111 °C; for `COc1cc2c(cc1OC)-c1cc(OC)c(OC)c3c1C(C2)CN(C)C3` (configuration not stated) it is 170 to 177 °C.
Molecule `COc1ccc(-c2ccc(S(=O)(=O)NCc3ccccn3)nc2)cc1` came in with a melting point of 150 °C.
As for `Nc1ccc(S(=O)(=O)c2cc(-c3ccccc3)nc(N3CCCC3)c2)cc1`, the figure is 255 to 258 °C; as for `CCc1cccc(C)c1CNc1nc(C(=O)N(C)C)cc2[nH]c(C)nc12`, 207 to 208 °C; as for `CCn1ncc2c1ncc1c(OC(C)C)nc3cc(C)nn3c12`, 129 to 130 °C.
The figure for `O=Cc1nn2c3c(cccc13)CCC2` is 119 to 120 °C.
As for `COc1ccc(C(=O)CC(C)C)c(Cl)c1Cl`, the figure is 49 to 54 °C; as for `CC(O)(C1=CCNCC1)c1ccc(F)cc1` (configuration not stated), 168 °C.
With `COc1ccccc1OCC(O)CN1CCCC(Cn2c(=O)[nH]c3ccccc32)C1` (configuration not stated), the melting point came to 158 °C.
The figure for `C=CCN1C2CCC3C1CCC2N3C(c1ccc(C(=O)N(CC)CC)cc1)c1cccc(O)c1` (configuration not stated) is 147 to 150 °C.
As for `COC(=O)Cn1nnc(N)n1`, the figure is 127 to 128 °C; as for `O=C(O)c1cn(C2CC2)c2c(F)c(N3CC(N4CCCC4)C3)c(F)cc2c1=O`, 224 to 227 °C; as for `N#Cc1c2c(c3c(c1N1CCCC1)Cc1ccccc1-3)Cc1ccccc1-2`, 158 to 160 °C.
The figure for `O=C(C=Cc1c(Cl)ccc(Cl)c1Cl)c1ccc(OC2CCCCO2)cc1` (configuration not stated) is 101 to 104 °C; for `CCCC#Cc1ccnc2[nH]cc(-c3ccnc(N)n3)c12` it is over 210 °C.
The molecule `NNC(=O)CCc1cccc(C(F)(F)F)c1` gave a melting point of 80 to 81 °C.
Take `CC(C)(F)[C@H]1C(=O)N[C@@H]1CC(=O)OCc1ccccc1` (racemic): the melting point lay within 112 to 116 °C.
The figure for `COc1cc(N2CCN(Cc3ccccc3)CC2)c2ncccc2c1Cl` is 138 to 140 °C; for `Cc1oc2c(C)c(C)c(N3C(=O)c4ccccc4C3=O)c(C)c2c1-c1ccc(C(C)C)cc1` it is 232 to 234 °C.
The figure for `CC(C)(C)NS(=O)(=O)c1ccsc1C1=CC(=O)CCC1` is 157 to 158 °C; for `CS(=O)(=O)c1c(C(=O)c2cnoc2C2CC2)ccc(F)c1F` it is 115 to 118 °C; for `Nc1ncc(-c2ccc(=O)[nH]n2)c(-c2ccc(F)c(F)c2)n1` it is 307 °C.
Regarding `Cc1ccc(-c2nc3ccc(C#N)cn3c2CN(C)C(=O)CC(C)C)cc1`, the melting point lay within 151 to 153 °C.
As for `O=C(c1cc(Cl)c(Cl)cc1NS(=O)(=O)c1cccc2nsnc12)N1CCCCC1`, the figure is 178 to 179 °C.
The figure for `O=S1(=O)NC(C23CC4CC(CC(C4)C2)C3)Nc2c(Br)cc(Br)cc21` (configuration not stated) is 270 to 273 °C.
The figure for `COCN1C(C)=C(C(=O)OCOC(=O)C(C)(C)C)C(c2ccccc2)C(C(=O)OCOC(=O)C(C)(C)C)=C1C` is 89 to 90 °C; for `N#CCC(=O)NC(C(=O)OC1CCCCC1)c1ccccc1` (configuration not stated) it is 114 to 116 °C.
In the case of `COCc1cc2c(-c3ccc(C(F)(F)F)n(C)c3=O)c(F)cc(Cl)c2o1`, the melting point is 136 to 137 °C.
As for `NC(=O)Cc1ccc2ccn(C3CCN(CCc4ccc(F)cc4)CC3)c2c1`, the figure is 112 to 113 °C; as for `CS(=O)(=O)Nc1ccnn1-c1ncc(Cl)cc1Cl`, 52 to 54 °C.
As for `CC(C)(O)CCNC(=O)c1n[nH]cc1NC(=O)c1ccccn1`, the figure is 193 to 194 °C; as for `O=C(NC(=O)N(SC(Cl)(Cl)Cl)c1ccc(Oc2ccc(C(F)(F)F)cc2Cl)cc1)c1ccccc1Cl`, 68 to 71 °C.
Turning to `O=CN(O)CCCC(O)CS(=O)(=O)c1ccccc1Oc1ccc(OC(F)(F)F)cc1` (configuration not stated), the melting point is 92 to 93.9 °C.
The figure for `CC(C)n1nc(-c2c(-c3ccccc3)nn3cccc(O)c23)ccc1=O` is 229 to 230 °C; for `Cc1cc(-n2ccnc2)c2cccc(OCc3c(Cl)ccc(S(=O)(=O)N4CCC[C@H]4C(=O)N4CCN(c5ccncc5)CC4)c3Cl)c2n1` it is 136 °C; for `O=C1NC(=S)SC1=Cc1ccc2c(c1)N(Cc1cccc(-c3ccncc3)c1)C(=O)CO2` it is 297 to 299 °C.
As for `N#CC(O)c1cccc2c(-c3ccccc3)c([N+](=O)[O-])oc12` (configuration not stated), the figure is 137 to 139 °C.
As for `CC1(C)CC(=C(c2ccc(O)cc2)c2ccc(OCCCC(=O)O)cc2)CC(C)(C)C1`, the figure is 203 to 204 °C.
Consider `COC(=O)CCc1cc(C(CC(C)C)NC(=O)Cc2ccc(NC(=O)Nc3ccccc3C)cc2)no1` (configuration not stated), for which the melting point was in the range of 153 to 154 °C.

The term melting point denotes the temperature of the solid-liquid transition.
